According to paper PMC6195508, “Studies on the metabolism and degradation of vancomycin in simulated in vitro and aquatic environment by UHPLC-Triple-TOF-MS/MS” (Scientific Reports, 2018):

Legend:
[1] = Incubation of vancomycin in activated (experimental) and inactivated (control) rat liver microsomes; format: in vitro ADME; details: vancomycin 60 mg/L, 37 °C, UHPLC-Triple-TOF-MS/MS
Description: (§1) UHPLC-Triple-TOF-MS/MS analysis was performed on a Shimadzu LC-30A UHPLC system (Kyoto, Japan) consisting of an autosampler (SIL-30AC), a binary pump (LC-30AD) and a column oven (CTO-30A) connected to an AB SCIEX triple TOF 5600 MS/MS system (Redwood, USA) equipped with Duo-Spray ion source. The compound separation was conducted with a Poroshell 120 EC-C18 (2.1 × 150 mm, 2.7 μm, Agilent InfinityLab, USA) chromatographic column maintained at 40 °C. The mobile phases A (0.1% aqueous formic acid) and B (acetonitrile) were used to optimized the gradient elution program, which was operated at follows: 0–1 min, 5% B; 1–9 min, 5–10% B; 9–14 min, 10–45% B; 14–20 min, 45–90% B; 20–25 min, 90% B for washing the column; 25–25.1 min, 90–5% B; 25.1–30 min, 5% B for equilibrating the column. The constant flow rate was 0.4 mL/min, and the injection volume was 5 µL.
(§2) The full-scan MS spectra and MS/MS spectra data were obtained in positive electrospray ionization (ESI) mode by Analyst TF 1.6 software (AB Sciex, USA). Full scan mode was applied, the parent ions scan ranged from m/z 100 to 2000 Da with a 200 ms accumulation time and the product ions scan range from 100 to 1500 Da with a 70 ms accumulation time. Simultaneously, the calibration delivery system calibrated mass numbers by every five samples to acquire exact mass of ions. The running time of data independent acquisition (DIA) was 20 min. […]

[2] = Degradation of vancomycin in phosphate buffer saline (PBS system); format: physicochemical; details: chemical stability in phosphate buffer saline; vancomycin 60 mg/L; 37 °C, constant temperature oscillator, sampled every 24 h for 10 days; one sample per time point; UHPLC-Triple-TOF-MS/MS, ESI+
Description: as §1, §2

[3] = Degradation of vancomycin in pure water (pure water system); format: physicochemical; details: chemical stability in pure (Milli-Q) water; vancomycin 60 mg/L; 37 °C, constant temperature oscillator, sampled every 24 h for 10 days; one sample per time point; UHPLC-Triple-TOF-MS/MS, ESI+
Description: as §1, §2

## CN[C@H](CC(C)C)C(=O)N[C@H]1C(=O)N[C@@H](CC(N)=O)C(=O)N[C@H]2C(=O)N[C@H]3C(=O)N[C@H](C(=O)N[C@H](C(=O)O)c4cc(O)cc(O)c4-c4cc3ccc4O)[C@H](O)c3ccc(c(Cl)c3)Oc3cc2cc(c3O[C@@H]2O[C@H](CO)[C@@H](O)[C@H](O)[C@H]2O[C@H]2C[C@](C)(N)[C@H](O)[C@H](C)O2)Oc2ccc(cc2Cl)[C@H]1O [vancomycin, Vancomycin]
[1]; male, Sprague-Dawley rat liver microsomes 1 mg/mL protein (activated with 1 mmol/L NADPH, or inactivated), PBS, MgCl2 3.3 mmol/L, constant temperature oscillator, pre-heated 5 min, sampled every 24 h for 10 days, one sample per time point, ESI+, read-out: time to 50% loss of vancomycin in rat liver microsomes (converted)
  half-life at 60 mg/L: ~6 days
[1]; similar degradation rate in activated (NADPH 1 mmol/L) and inactivated rat liver microsomes, 1 mg/mL protein
  metabolism by liver microsomal cytochrome P450 enzymes (activated versus inactivated microsomes): not metabolized in the liver
[2]
  time to 50% loss of vancomycin in PBS: approximately 9 days
[3]
  time to 50% loss of vancomycin in water: over 10 days
